In patent publication US10815230B2, “Casein kinase 1 delta inhibitor” (ELECTROPHORETICS LIMITED, priority 2015, dated 2020):
Read-outs that look alike come from different tables or passages of the source. Marks after values point to notes of the source that are not given here.

How the values were obtained:
PKA = PKA (Homo sapiens, UniProt P17612); test: Kinase selectivity, % remaining activity; type: biochemical; conditions: 10 μM compound, 10 μM ATP, duplicate; for remaining activity at 10 µM: read-out: % of remaining activity (relative to DMSO)
Method in brief: (§1)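 Compound was added at 10 μM from DMSO and each kinase reaction run at 10 μM ATP in duplicate; activity left was then expressed as a percentage of the DMSO-only reaction.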

CK1g3 = CK1g3 (Homo sapiens, UniProt Q9Y6M4); test: Kinase selectivity, % remaining activity; type: biochemical; conditions: 10 μM compound, 10 μM ATP, duplicate; for remaining activity at 10 µM: read-out: % of remaining activity (relative to DMSO)
CK1g3, sequence (Q9Y6M4 whole entry): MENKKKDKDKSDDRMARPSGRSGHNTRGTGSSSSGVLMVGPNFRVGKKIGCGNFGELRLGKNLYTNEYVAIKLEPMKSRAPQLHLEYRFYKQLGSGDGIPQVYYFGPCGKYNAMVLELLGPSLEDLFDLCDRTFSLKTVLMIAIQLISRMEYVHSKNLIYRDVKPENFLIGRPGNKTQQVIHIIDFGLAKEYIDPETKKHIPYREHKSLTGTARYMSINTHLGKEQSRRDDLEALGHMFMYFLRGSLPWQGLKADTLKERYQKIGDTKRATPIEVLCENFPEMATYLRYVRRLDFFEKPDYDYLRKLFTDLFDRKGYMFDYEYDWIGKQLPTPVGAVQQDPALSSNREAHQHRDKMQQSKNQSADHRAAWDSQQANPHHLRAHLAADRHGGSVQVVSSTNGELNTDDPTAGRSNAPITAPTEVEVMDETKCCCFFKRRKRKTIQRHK
Method in brief: as §1

KDR/VEGFR2 = KDR/VEGFR2 (Homo sapiens, UniProt P35968); test: Kinase selectivity, % remaining activity; type: biochemical; conditions: 10 μM compound, 10 μM ATP, duplicate; for remaining activity at 10 µM: read-out: % of remaining activity (relative to DMSO)
KDR/VEGFR2, sequence (P35968 20-1356): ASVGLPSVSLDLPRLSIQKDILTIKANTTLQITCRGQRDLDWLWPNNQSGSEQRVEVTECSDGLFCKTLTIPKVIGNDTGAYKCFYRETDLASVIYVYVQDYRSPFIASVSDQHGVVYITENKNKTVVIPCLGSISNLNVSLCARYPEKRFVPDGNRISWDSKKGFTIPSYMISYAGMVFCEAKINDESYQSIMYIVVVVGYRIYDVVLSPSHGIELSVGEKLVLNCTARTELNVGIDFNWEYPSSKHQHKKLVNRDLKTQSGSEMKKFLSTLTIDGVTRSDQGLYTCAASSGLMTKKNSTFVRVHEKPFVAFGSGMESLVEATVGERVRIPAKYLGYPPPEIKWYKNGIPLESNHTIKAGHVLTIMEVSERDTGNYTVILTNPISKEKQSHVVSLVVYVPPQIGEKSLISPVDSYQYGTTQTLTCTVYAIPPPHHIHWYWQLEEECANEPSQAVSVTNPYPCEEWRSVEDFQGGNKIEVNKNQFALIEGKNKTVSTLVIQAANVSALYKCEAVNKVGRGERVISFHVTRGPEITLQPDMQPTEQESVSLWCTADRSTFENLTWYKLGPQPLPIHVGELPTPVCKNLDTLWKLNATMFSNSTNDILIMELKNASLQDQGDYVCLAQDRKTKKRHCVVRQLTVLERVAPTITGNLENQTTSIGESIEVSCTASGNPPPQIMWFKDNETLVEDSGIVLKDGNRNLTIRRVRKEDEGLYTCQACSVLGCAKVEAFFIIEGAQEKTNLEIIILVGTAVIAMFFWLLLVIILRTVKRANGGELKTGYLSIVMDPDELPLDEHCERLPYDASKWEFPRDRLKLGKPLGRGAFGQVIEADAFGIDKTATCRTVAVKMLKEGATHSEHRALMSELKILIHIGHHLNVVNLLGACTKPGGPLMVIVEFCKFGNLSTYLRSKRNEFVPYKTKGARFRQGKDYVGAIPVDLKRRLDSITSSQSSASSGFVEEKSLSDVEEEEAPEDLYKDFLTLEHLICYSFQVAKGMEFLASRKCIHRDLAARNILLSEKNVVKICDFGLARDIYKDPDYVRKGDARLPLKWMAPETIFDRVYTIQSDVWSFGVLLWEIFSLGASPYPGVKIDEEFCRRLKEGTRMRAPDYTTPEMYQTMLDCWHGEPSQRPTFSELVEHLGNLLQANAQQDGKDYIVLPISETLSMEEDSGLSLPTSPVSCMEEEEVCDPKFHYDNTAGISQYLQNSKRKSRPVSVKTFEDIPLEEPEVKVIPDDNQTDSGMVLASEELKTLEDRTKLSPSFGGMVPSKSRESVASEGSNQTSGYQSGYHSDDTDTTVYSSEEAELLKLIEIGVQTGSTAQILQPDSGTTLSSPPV
Method in brief: as §1

P38a/MAPK14 = P38a/MAPK14 (Homo sapiens, UniProt Q16539); test: Kinase selectivity, % remaining activity; type: biochemical; conditions: 10 μM compound, 10 μM ATP, duplicate; for remaining activity at 10 µM: read-out: % of remaining activity (relative to DMSO)
P38a/MAPK14, sequence (Q16539 whole entry): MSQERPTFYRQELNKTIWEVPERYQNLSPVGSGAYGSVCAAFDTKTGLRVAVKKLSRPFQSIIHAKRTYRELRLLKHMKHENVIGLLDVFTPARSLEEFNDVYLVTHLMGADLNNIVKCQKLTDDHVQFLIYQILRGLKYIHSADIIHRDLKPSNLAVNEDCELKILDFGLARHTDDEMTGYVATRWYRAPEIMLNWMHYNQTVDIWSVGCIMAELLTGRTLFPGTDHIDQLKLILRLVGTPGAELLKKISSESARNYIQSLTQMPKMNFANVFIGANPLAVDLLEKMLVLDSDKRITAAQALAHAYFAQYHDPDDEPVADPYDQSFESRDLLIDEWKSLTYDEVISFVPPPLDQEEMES
Method in brief: as §1

PDK1/PDPK1 = molecular target: T1, PDK1/PDPK1 (Homo sapiens, UniProt O15530); test: Kinase selectivity, % remaining activity; type: biochemical; conditions: 10 μM compound, 10 μM ATP, duplicate; for remaining activity at 10 µM: read-out: % of remaining activity (relative to DMSO)
T1 sequence (O15530 1-556): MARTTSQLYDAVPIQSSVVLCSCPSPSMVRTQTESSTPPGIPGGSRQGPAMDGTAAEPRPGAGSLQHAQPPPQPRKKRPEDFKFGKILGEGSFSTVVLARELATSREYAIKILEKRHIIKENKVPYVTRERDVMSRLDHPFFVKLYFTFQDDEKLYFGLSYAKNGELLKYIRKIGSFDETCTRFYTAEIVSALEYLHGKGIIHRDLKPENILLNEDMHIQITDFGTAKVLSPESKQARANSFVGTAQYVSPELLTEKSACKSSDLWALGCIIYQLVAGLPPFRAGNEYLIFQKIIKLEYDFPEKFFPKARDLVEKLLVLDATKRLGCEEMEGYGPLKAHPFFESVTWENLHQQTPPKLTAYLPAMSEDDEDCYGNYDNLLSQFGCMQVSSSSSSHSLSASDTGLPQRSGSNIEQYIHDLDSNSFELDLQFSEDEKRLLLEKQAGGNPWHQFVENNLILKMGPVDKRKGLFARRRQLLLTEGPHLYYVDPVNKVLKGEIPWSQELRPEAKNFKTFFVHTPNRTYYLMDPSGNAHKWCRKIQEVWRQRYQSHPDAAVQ
Method in brief: as §1

JNK2 = JNK2 (Homo sapiens, UniProt P45984); test: Kinase selectivity, % remaining activity; type: biochemical; conditions: 10 μM compound, 10 μM ATP, duplicate; for remaining activity at 10 µM: read-out: % of remaining activity (relative to DMSO)
JNK2, sequence (P45984 whole entry): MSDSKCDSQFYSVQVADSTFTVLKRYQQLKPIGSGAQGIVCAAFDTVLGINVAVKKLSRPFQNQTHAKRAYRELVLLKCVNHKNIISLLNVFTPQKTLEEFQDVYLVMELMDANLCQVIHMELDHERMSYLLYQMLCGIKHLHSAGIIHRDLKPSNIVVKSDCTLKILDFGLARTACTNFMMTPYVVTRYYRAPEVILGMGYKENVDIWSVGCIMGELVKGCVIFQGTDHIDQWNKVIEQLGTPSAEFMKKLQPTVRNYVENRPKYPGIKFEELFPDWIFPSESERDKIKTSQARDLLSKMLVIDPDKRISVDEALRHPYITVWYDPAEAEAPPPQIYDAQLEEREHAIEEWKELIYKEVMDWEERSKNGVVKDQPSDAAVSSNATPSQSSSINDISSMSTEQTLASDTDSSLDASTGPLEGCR
Method in brief: as §1

CDK5/p25 = CDK5/p25 (Homo sapiens, UniProt Q00535); test: Kinase selectivity, % remaining activity; type: biochemical; conditions: 10 μM compound, 10 μM ATP, duplicate; for remaining activity at 10 µM: read-out: % of remaining activity (relative to DMSO)
CDK5/p25, sequence (Q00535 whole entry, species assumed): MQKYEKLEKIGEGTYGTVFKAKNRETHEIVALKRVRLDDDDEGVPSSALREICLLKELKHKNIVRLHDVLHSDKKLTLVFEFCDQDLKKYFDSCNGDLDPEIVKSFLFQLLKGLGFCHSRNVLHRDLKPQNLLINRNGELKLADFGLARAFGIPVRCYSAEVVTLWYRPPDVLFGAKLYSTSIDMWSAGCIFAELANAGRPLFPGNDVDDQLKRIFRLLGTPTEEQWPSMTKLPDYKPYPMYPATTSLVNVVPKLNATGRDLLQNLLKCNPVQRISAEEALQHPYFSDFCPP
Method in brief: as §1

PKCb2 = PKCb2 (Homo sapiens, UniProt P05771); test: Kinase selectivity, % remaining activity; type: biochemical; conditions: 10 μM compound, 10 μM ATP, duplicate; for remaining activity at 10 µM: read-out: % of remaining activity (relative to DMSO)
PKCb2, sequence (P05771 1-673 isoform P05771-2): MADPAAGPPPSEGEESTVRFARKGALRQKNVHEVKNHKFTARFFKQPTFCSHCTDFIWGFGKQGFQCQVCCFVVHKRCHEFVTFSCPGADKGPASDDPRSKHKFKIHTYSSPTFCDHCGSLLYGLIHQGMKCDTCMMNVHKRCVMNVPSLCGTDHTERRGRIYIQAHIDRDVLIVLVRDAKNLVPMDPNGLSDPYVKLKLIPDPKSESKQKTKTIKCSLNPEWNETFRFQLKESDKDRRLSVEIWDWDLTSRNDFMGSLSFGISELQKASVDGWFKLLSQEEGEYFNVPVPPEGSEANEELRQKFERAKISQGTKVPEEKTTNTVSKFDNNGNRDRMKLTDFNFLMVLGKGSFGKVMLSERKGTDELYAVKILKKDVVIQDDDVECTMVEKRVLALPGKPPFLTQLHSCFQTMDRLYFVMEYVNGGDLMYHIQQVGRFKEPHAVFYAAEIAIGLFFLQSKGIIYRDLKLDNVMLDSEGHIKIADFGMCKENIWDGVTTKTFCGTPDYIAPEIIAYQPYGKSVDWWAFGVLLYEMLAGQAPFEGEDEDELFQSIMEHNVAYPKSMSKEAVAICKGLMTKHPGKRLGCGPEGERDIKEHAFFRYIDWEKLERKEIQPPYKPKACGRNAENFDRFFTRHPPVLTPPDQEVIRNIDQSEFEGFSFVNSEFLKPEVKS
Method in brief: as §1

CK1a1 = CK1a1 (Homo sapiens, UniProt P48729); test: Kinase selectivity, % remaining activity; type: biochemical; conditions: 10 μM compound, 10 μM ATP, duplicate
CK1a1, sequence (P48729 whole entry): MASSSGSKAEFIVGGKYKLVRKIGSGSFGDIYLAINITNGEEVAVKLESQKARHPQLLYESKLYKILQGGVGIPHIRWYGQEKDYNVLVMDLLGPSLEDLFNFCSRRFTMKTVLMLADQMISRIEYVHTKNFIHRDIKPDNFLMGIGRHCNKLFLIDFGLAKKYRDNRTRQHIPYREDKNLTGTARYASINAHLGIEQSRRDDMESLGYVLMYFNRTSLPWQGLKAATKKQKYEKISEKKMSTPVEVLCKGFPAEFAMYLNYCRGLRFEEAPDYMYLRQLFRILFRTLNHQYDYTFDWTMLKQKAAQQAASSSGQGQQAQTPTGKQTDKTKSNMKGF
Method: (§2) Compounds were tested in single dose duplicate mode at a concentration of 10 μM (in DMSO) and reactions were carried out at 10 μM ATP, Table 3 reports the % of remaining activity (relative to DMSO).

[1] = molecular target: CK1d (casein kinase 1 delta) (Homo sapiens, UniProt P48730); test: Kinase selectivity, % remaining activity and IC50; type: biochemical; conditions: 10 μM ATP; for % of remaining activity (relative to DMSO) / remaining activity at 10 µM: CK1d, 10 μM compound, duplicate; for remaining activity at 10 µM: read-out: % of remaining activity (relative to DMSO); for IC50: casein kinase 1 delta, 10-dose, 3 fold serial dilution
CK1d (casein kinase 1 delta), sequence (P48730 whole entry): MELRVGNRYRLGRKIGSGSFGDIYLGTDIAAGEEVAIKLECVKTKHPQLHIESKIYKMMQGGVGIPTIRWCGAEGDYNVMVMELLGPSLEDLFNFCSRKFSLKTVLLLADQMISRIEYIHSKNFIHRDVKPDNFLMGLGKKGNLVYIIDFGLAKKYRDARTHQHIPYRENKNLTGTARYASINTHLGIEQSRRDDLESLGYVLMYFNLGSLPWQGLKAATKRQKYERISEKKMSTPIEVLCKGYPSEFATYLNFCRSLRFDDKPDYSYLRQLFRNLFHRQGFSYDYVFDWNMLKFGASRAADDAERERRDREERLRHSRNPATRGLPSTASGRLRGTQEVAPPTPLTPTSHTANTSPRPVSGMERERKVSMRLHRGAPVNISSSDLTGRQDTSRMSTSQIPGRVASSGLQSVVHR
Method: A two-tier strategy to determine the selectivity of compound A was applied: first, the compound was tested at a single concentration (in duplicate) to determine the %-remaining activity of the target kinase. Subsequently, the IC50 of compound A and comparative compounds for casein kinase 1 delta were determined.
as §2
Control compound GW5074 (Tocris®) was tested starting at 20 μM. Reactions were carried out at 10 μM ATP.

NEK5 = NEK5 (Homo sapiens, UniProt Q6P3R8); test: KINOMEscan binding assay; conditions: read-out: % Ctrl @ 10000 nM
PRKG1 = PRKG1 (Homo sapiens, UniProt Q13976); test: KINOMEscan binding assay; conditions: read-out: % Ctrl @ 10000 nM
[2] = molecular target: JAK1 (JH2domain-pseudokinase) (Homo sapiens, UniProt P23458); test: KINOMEscan binding assay; conditions: read-out: % Ctrl @ 10000 nM
EPHA8 = EPHA8 (Homo sapiens, UniProt P29322); test: KINOMEscan binding assay; conditions: read-out: % Ctrl @ 10000 nM
WEE2 = molecular target: T2, WEE2 (Homo sapiens, UniProt P0C1S8); test: KINOMEscan binding assay; conditions: read-out: % Ctrl @ 10000 nM
T2 construct: purchased DiscoveRx (KINOMEscan, LeadHunter Discovery services)

[3] = molecular target: EGFR (L747-E749del, A750P) (Homo sapiens, UniProt P00533, A750P/DEL747-749); test: KINOMEscan binding assay; conditions: read-out: % Ctrl @ 10000 nM
PIM2 = PIM2 (Homo sapiens, UniProt Q9P1W9); test: KINOMEscan binding assay; conditions: read-out: % Ctrl @ 10000 nM
RET (V804L) = RET (V804L) (Homo sapiens, UniProt P07949, V804L); test: KINOMEscan binding assay; conditions: read-out: % Ctrl @ 10000 nM
QSK = QSK (Homo sapiens, UniProt Q9Y2K2); test: KINOMEscan binding assay; conditions: read-out: % Ctrl @ 10000 nM
PKMYT1 = PKMYT1 (Homo sapiens, UniProt Q99640); test: KINOMEscan binding assay; conditions: read-out: % Ctrl @ 10000 nM
FGFR2 = FGFR2 (Homo sapiens, UniProt P21802); test: KINOMEscan binding assay; conditions: read-out: % Ctrl @ 10000 nM
LCK = LCK (Homo sapiens, UniProt P06239); test: KINOMEscan binding assay; conditions: read-out: % Ctrl @ 10000 nM
[4] = molecular target: ABL1 (H396P) phosphorylated (Homo sapiens, UniProt P00519, H396P); test: KINOMEscan binding assay; conditions: read-out: % Ctrl @ 10000 nM
BMX = BMX (Homo sapiens, UniProt P51813); test: KINOMEscan binding assay; conditions: read-out: % Ctrl @ 10000 nM
FLT1 = FLT1 (Homo sapiens, UniProt P17948); test: KINOMEscan binding assay; conditions: read-out: % Ctrl @ 10000 nM
CSF1R-autoinhibited = CSF1R-autoinhibited (Homo sapiens, UniProt P07333); test: KINOMEscan binding assay; conditions: read-out: % Ctrl @ 10000 nM
CAMK4 = CAMK4 (Homo sapiens, UniProt Q16566); test: KINOMEscan binding assay; conditions: read-out: % Ctrl @ 10000 nM
CAMK4, sequence (Q16566 whole entry): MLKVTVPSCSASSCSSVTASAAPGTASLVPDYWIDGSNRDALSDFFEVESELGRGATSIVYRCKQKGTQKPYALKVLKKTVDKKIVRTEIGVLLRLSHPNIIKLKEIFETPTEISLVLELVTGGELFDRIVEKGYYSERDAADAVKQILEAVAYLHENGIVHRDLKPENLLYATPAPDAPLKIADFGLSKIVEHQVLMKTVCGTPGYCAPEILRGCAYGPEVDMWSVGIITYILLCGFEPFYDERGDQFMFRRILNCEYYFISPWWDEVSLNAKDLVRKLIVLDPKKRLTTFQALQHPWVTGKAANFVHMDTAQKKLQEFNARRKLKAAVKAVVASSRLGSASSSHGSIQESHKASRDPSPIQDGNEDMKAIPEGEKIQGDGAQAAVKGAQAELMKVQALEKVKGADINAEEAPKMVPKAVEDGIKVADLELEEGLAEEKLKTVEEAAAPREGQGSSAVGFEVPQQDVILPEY

[5] = CK1a1, read-out: % of remaining activity (relative to DMSO)

Compound | remaining activity at 10 µM (PKA) | remaining activity at 10 µM (CK1g3) | remaining activity at 10 µM (KDR/VEGFR2) | remaining activity at 10 µM (P38a/MAPK14) | remaining activity at 10 µM (PDK1/PDPK1) | remaining activity at 10 µM (JNK2) | remaining activity at 10 µM (CDK5/p25) | remaining activity at 10 µM (PKCb2) | remaining activity at 10 µM (CK1a1; [5]) | remaining activity at 10 µM [1] | IC50 [1] | remaining binding at 10 µM (NEK5) | remaining binding at 10 µM (PRKG1) | remaining binding at 10 µM [2] | remaining binding at 10 µM (EPHA8) | remaining binding at 10 µM (WEE2) | remaining binding at 10 µM [3] | remaining binding at 10 µM (PIM2) | remaining binding at 10 µM (RET (V804L)) | remaining binding at 10 µM (QSK) | further results
COc1ccc(C=C2N=C(c3cccs3)OC2=O)cc1 [Comparative Compound 315, 4-((4-methoxyphenyl)methylene)-2-(2-thienyl)-5(4H)-oxalone] | 116% | 2.9% | 104% | 105% | 105% | 99.4% | 96.1% | 112% | 33.6% | 2.23% | 435 nM |  |  |  |  |  |  |  |  |  | % of remaining activity (relative to DMSO) (PKA; listed as Cmp 315): 112.40%; % of remaining activity (relative to DMSO) (CK1g3; listed as Cmp 315): 2.99%; % of remaining activity (relative to DMSO) (KDR/VEGFR2; listed as Cmp 315): 107.86%; % of remaining activity (relative to DMSO) (P38a/MAPK14; listed as Cmp 315): 107.03%; % of remaining activity (relative to DMSO) (PDK1/PDPK1; listed as Cmp 315): 103.28%; % of remaining activity (relative to DMSO) (JNK2; listed as Cmp 315): 98.70%; % of remaining activity (relative to DMSO) (CDK5/p25; listed as Cmp 315): 94.86%; % of remaining activity (relative to DMSO) (PKCb2; listed as Cmp 315): 110.56%; % of remaining activity (relative to DMSO) (CK1a1; CK1a1, listed as Cmp 315): 44.41%; % of remaining activity (relative to DMSO) ([1]; listed as Cmp 315): 1.38%
Nc1ncc(-c2nc3ccccc3o2)c(-c2ccncc2)n1 [Comparative Compound 324, 5-(1,3-benzoxazol-2-yl)-4-(pyridine-4-yl)pyrimidin-2-amine] | 90.8% | 69.9% | 85.1% | 53.9% | 105% | 95.1% | 87.7% | 101% | 65.7% | 13.3% | 483 nM | 100% | 100% | 17% | 94% | 100% | 64% | 98% | 86% | 99% | % of remaining activity (relative to DMSO) (PKA; listed as Cmp 324): 90.27%; % of remaining activity (relative to DMSO) (CK1g3; listed as Cmp 324): 62.63%; % of remaining activity (relative to DMSO) (KDR/VEGFR2; listed as Cmp 324): 100.01%; % of remaining activity (relative to DMSO) (P38a/MAPK14; listed as Cmp 324): 48.46%; % of remaining activity (relative to DMSO) (PDK1/PDPK1; listed as Cmp 324): 104.88%; % of remaining activity (relative to DMSO) (JNK2; listed as Cmp 324): 91.75%; % of remaining activity (relative to DMSO) (CDK5/p25; listed as Cmp 324): 97.13%; % of remaining activity (relative to DMSO) (PKCb2; listed as Cmp 324): 103.51%; remaining binding at 10 µM (PKMYT1): 100%; remaining binding at 10 µM (FGFR2): 63%; remaining binding at 10 µM (LCK): 88%; remaining binding at 10 µM [4]: 98%; % of remaining activity (relative to DMSO) (CK1a1; CK1a1, listed as Cmp 324): 58.48%; % of remaining activity (relative to DMSO) ([1]; listed as Cmp 324): 11.87%; remaining binding at 10 µM (BMX): 100%; remaining binding at 10 µM (FLT1): 91%; remaining binding at 10 µM (CSF1R-autoinhibited): 70%; remaining binding at 10 µM (CAMK4): 89%
CNc1c(C(N)=O)c2ccccn2c1C(=O)c1ccc(F)cc1 [Compound A, 2-methyl-amino-3-[(4-fluorophenyl)carbonyl]indolizine-1-carboxamide] | 84.3% | 98.5% | 111% | 35.3% | 107% | 99.9% | 90.2% | 113% | 5.17% | 1.15% | 17.4 nM | 91% | 100% | 71% | 59% | 100% | 13% | 65% | 67% | 82% | % of remaining activity (relative to DMSO) (PKA; listed as Cmp A): 82.86%; % of remaining activity (relative to DMSO) (CK1g3; listed as Cmp A): 97.24%; % of remaining activity (relative to DMSO) (KDR/VEGFR2; listed as Cmp A): 109.28%; % of remaining activity (relative to DMSO) (P38a/MAPK14; listed as Cmp A): 34.47* %; % of remaining activity (relative to DMSO) (PDK1/PDPK1; listed as Cmp A): 105.50%; % of remaining activity (relative to DMSO) (JNK2; listed as Cmp A): 97.26%; % of remaining activity (relative to DMSO) (CDK5/p25; listed as Cmp A): 88.62%; % of remaining activity (relative to DMSO) (PKCb2; listed as Cmp A): 111.60%; remaining binding at 10 µM (PKMYT1): 52%; remaining binding at 10 µM (FGFR2): 53%; remaining binding at 10 µM (LCK): 23%; remaining binding at 10 µM [4]: 49%; % of remaining activity (relative to DMSO) (CK1a1; CK1a1, listed as Cmp A): 5.37%; % of remaining activity (relative to DMSO) ([1]; listed as Cmp A): 0.98%; remaining binding at 10 µM (BMX): 91%; remaining binding at 10 µM (FLT1): 91%; remaining binding at 10 µM (CSF1R-autoinhibited): 100%; remaining binding at 10 µM (CAMK4): 96%
Nc1ncnc2c1c(COc1cccc(Cl)c1)nn2C1CCOCC1 [PF4800567, 3-[(3-Chlorophenoxy)methyl]-1-(tetrahydro-2H-pyran-4-yl)-1H-pyrazolo[3,4-d]pyrimidin-4-amine] | 83% | 88.9% | 83.1% | 71.2% | 103% | 96.5% | 97.7% | 88.5% |  | 8.41% |  |  |  |  |  |  |  |  |  |  | remaining activity at 10 µM (CK1a1; read-out: % of remaining activity (relative to DMSO), CK1a1): 29.3%
